# T1: AbThiL (ThiL, thiamine monophosphate kinase) (Acinetobacter baumannii, UniProt A0A0D5YC82)
# T1 construct: non-cleavable N-terminal His6-tag (vector pBG1861), expressed in E. coli Rosetta BL21(DE3)R3; modelled Met1/Ala2 to Phe304/C-terminal Ala305; homodimer, active site at dimer interface
# T1 sequence (A0A0D5YC82 1-305): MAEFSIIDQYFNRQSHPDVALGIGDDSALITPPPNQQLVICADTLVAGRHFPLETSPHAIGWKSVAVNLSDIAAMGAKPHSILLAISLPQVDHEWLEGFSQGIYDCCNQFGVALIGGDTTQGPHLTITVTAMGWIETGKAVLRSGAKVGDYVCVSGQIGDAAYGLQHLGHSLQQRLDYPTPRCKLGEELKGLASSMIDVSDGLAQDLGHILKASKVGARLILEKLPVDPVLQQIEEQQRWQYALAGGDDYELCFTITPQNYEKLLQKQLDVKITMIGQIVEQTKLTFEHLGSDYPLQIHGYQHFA
# B1: Thiamine monophosphate kinase (ThiL) from Acinetobacter baumannii (enzyme, UniProt A0A0D5YC82 1-305, looked up)
# chain: T1 sequence (A0A0D5YC82 1-305)
# notes: Thiamine monophosphate kinase (ThiL), Acinetobacter baumannii strain AB5075-UW, gene amplified from genomic DNA; The vector pBG1861 provides a non-cleavable N-terminal His6-tag; also called AbThiL; not shown: His6, N-terminal, kept
# Tests used:
# [1] = target: T1, AbThiL (ThiL, thiamine monophosphate kinase); assay: X-ray crystallography (co-crystal), […] A monoclinic and […] A orthorhombic; format: binding; conditions: 5 mM ADP/TPP/MgCl2, paper assigns 5CM7, 5D9U and 6MFM to the two crystal forms inconsistently
# [2] = target: T1, AbThiL (ThiL, thiamine monophosphate kinase); assay: X-ray crystallography (co-crystal), […] A; format: binding; conditions: AMPPNP alone, 5 mM AMPPNP/MgCl2, NaBr; ATP site; also with TMP in 5DD7
# [3] = target: T1, AbThiL (ThiL, thiamine monophosphate kinase); assay: X-ray crystallography (overnight soak of AMPPNP co-crystals), […] A; format: binding; conditions: ternary complex with AMPPNP; Mg2+; 5 mM AMPPNP/TMP/MgCl2; K/Na-tartrate, HEPES pH 7.5; active site at dimer interface
# [4] = target: the molecule itself; assay: crystal structure; AbThiL co-crystallised or soaked with AMPPNP, AMPPNP/TMP or ADP/TPP and MgCl2; orthorhombic (P21212) and monoclinic (P21) crystal forms; sitting drops at 287 K
molecule,measurement,setting,value
Nc1ncnc2c1ncn2[C@@H]1O[C@H](COP(=O)(O)OP(=O)(O)O)[C@@H](O)[C@H]1O [ADP],"X-ray crystallography (co-crystal), 1.55 A monoclinic and 1.90 A orthorhombic","[1]; ternary complex with TPP, ATP/ADP site",with the products ADP/TDP (orthorhombic and monoclinic)
Nc1ncnc2c1ncn2[C@@H]1O[C@H](COP(=O)(O)OP(=O)(O)NP(=O)(O)O)[C@@H](O)[C@H]1O [AMPPNP],"X-ray crystallography (co-crystal), 1.75 A",[2],AbThiL in complex with AMPPNP alone (orthorhombic)
Cc1ncc(C[n+]2csc(CCOP(=O)(O)O)c2C)c(N)n1 [TMP],"X-ray crystallography (overnight soak of AMPPNP co-crystals), 1.70 A",[3],"AbThiL in complex with AMPPNP alone (orthorhombic), the substrate analogs AMPPNP/TMP (orthorhombic)"
Cc1ncc(C[n+]2csc(CCOP(=O)(O)OP(=O)(O)O)c2C)c(N)n1 [TPP],"X-ray crystallography (co-crystal), 1.55 A monoclinic and 1.90 A orthorhombic","[1]; ternary complex with ADP, TMP/TPP site",with the products ADP/TDP (orthorhombic and monoclinic)
B1,stoichiometry N,[4],2
